In US20250287987A1, “AEROSOLISABLE MATERIAL” (NICOVENTURES TRADING LIMITED, priority 2022, published 2025):

Experiment: LogP (1-octanol/water partition coefficient) of terpenes, slow-stirring method
Description: LogP is the partition coefficient of a molecule between aqueous and lipophilic phases, usually considered as octanol and water. As referred to herein, the LogP of specific terpenes can be determined using the “slow-stirring” method, wherein water, 1-octanol and the test substance are equilibrated in a thermostated stirred reactor. Exchange between the phases is accelerated by stirring. The stirring introduces limited turbulence which enhances the exchange between 1-octanol and water without microdroplets being formed. A suitable “slow-stirring” method is: Test No. 123: Partition Coefficient (1-Octanol/Water): Slow-Stirring Method, 30 Jun. 2022, OECD Guidelines for the Testing of Chemicals.

logP (LogP) | SMILES | also measured
 | C=C(C)[C@H]1CC=C(C)CC1 [Limonene] | logP (octanol/water): 4.4
3.56 | CC(C)=CCCC(C)CCO (stereo not drawn) [Beta-citronellol] | 
> 6.4 | C=C1CC/C=C(\C)CC[C@@H]2[C@@H]1CC2(C)C [beta-caryophyllene] | 
 | C=CC(C)(CCC=C(C)C)OC(C)=O (stereo not shown) [Linalyl acetate] | logP: 3.92
